Experimental data taken from patent US9115089B2, “Methyl/fluoro-pyridinyl-methoxy substituted pyridinone-pyridinyl compounds and fluoro-pyrimidinyl-methoxy substituted pyridinone-pyridinyl compounds” (CONFLUENCE LIFE SCIENCES, INC., priority 2013, dated 2015).
pIC50: −log10 of the molar value.

Tests used:
Assay type in all cases: cell-based
[1] = system: IL-1β production in human whole blood; assay: Endotoxin-induced IL-1β production from human whole blood; settings: LPS 100 ng/ml, 3 hours, read-out: HWB IL-1β IC50
Protocol: (§1) Human whole blood (HWB; 25-45 ml) was collected from an NSAID-free donor into vacutainer collection tubes containing sodium heparin (10 ml, 158 USP units), pooled and rocked gently before being distributed into each well of a 96-well round bottom tissue culture plate ([…]). Compounds ([…]/well, concentration response) are added and mixed gently for 15-20 seconds using a disposable 96 polypropylene pin tool before the plates are incubated at 37° C./5% CO2 for 1 hour. The HWB is stimulated with LPS (100 ng/ml) in a final assay volume of […]. After 3 hours, the plates are spun at 240×g for 5 minutes to pellet the red cells. The plasma is carefully transferred to another 96-well round bottom plate and diluted 2-fold with assay media (DMEM containing 10% fetal bovine serum (FBS) plus antibiotics). Finally, the diluted plasma ([…]/well) is transferred to Meso Scale detection plates for determination of IL-1, IL-6 or TNFα.

[2] = system: IL-6 production in human whole blood; assay: Endotoxin-induced IL-6 production from human whole blood; settings: LPS 100 ng/ml, 3 hours, read-out: HWB IL-6 IC50
Protocol: as §1

[3] = system: TNFα production in human whole blood; assay: Endotoxin-induced TNFα production from human whole blood; settings: LPS 100 ng/ml, 3 hours, read-out: HWB TNFα IC50
Protocol: as §1

[4] = system: TNFα production in U937 cells; assay: LPS-induced TNFα production in differentiated U937 cells; settings: Homo sapiens, U-937, LPS 0.1 μg/mL for 4 hours
Protocol: Therefore, inhibition of the p38 MAPK pathway will lower the inflammatory response by decreasing biosynthesis of proinflammatory cytokines. […] Evaluation of the potency and efficacy of p38 inhibitors to block cytokine production is carried out using the human U937 cell line. The U937 human pre-monocytic cell line is obtained from the American Type Culture Collection (Rockville, Md.). These cells are differentiated to a monocytic/macrophage phenotype as described by Burnette (Burnette et al, (2009). SD0006: a potent, selective and orally available inhibitor of p38 kinase, Pharmacology 84(1):42-60). Differentiated U937 cells are seeded into 96-well tissue culture plates (200,000 cells/well) in complete media. After 24 hours, the cells are pretreated for 60 minutes in the presence or absence of compound and then stimulated with LPS (0.1 μg/mL) for 4 hours. Culture media are then collected for determination of TNFα, IL-6 or IL-1β levels by ELISA. Cytokine concentrations are extrapolated from recombinant protein standard curves using a four-parameter logistic model and solving for IC50 after iterating to the best least-squares fit.

[5] = system: IL-6 production in A549 cells; assay: IL-1-induced IL-6 production in A549 cells; settings: Homo sapiens, 3 hours stimulation
Protocol: Adherent A549 cells (approximately 5 million per T75 cm^2 tissue culture flask) are grown in F-12K media containing 10% fetal bovine serum (FBS) plus antibiotics. The cells are trypsinized, washed and resuspended at 0.3 million per milliliter. A549 cells are then distributed into each well of a 96-well flat bottom tissue culture plate ([…]) and the 30,000 cells/well are allowed to recover, incubated, overnight. On the day of the assay fresh media ([…]) is added to the plates followed by the addition of compound ([…]/well, concentration response) for 1 hour. […] After 3 hours, cultured media ([…]/well) is transferred from the assay plate to a Meso Scale custom coated detection plate for determination of IL-6 levels. […] Read buffer ([…]/well, MSD 4× read buffer diluted 4-fold with dH2O) is added and the plate is read using the Meso Scale Sector Imager 6000. Upon electrical stimulation of the detection plate, co-reactants in the read buffer enhance an electrochemical reaction resulting in the release of energy in the form of light. This signal is captured by an internal CCD camera and quantitated. Viability of A549 cells is determined using an MTT assay. […] Isopropanol ([…]) is added to solubilize the resulting formazan crystals and the plate is read at 570 nm/650 nm using a Molecular Devices SpectraMax spectrophotometer.

pIC50 [4]: 8.80 | pIC50 [5]: 8.74
SMILES: Cc1cnc(-c2ccnc(C(C)(C)O)n2)cc1-n1c(C)cc(OCc2ncc(F)cc2F)c(Cl)c1=O [Compound 49, 3-chloro-4-((3,5-difluoropyridin-2-yl)methoxy)-2′-(2-(2-hydroxypropan-2-yl)pyrimidin-4-yl)-5′,6-dimethyl-2H-[1,4′-bipyridin]-2-one]
pIC50 [1]: 8.22 | pIC50 [2]: 7.46 | pIC50 [3]: 7.89
